# Results taken from US20260274843A1, “SALT AND SOLID FORMS OF A CDK INHIBITOR” (GENENTECH, INC., priority 2023, published 2026).
# Tests used:
# Assay type in all cases: physicochemical
# [1] = Estimated solubility measurement in selected solvents at room temperature; conditions: thermodynamic from solid
# Description: Preliminary solubility of Compound (I) was estimated in 13 selected solvents at room temperature. About 2 mg of Compound (I) was weighed into sample vials and different solvents were added with vortex, 20-200 μL per time, until the drug solution was clear by observation. The volume of solvent was up to 1000 V. Then, the estimated solubility (mg/mL) was calculated.
# [2] = Dynamic vapor sorption (DVS) moisture sorption/desorption; conditions: for hygroscopicity: in words
# Description: Moisture sorption/desorption data was collected on a DVS Intrinsic PLUS (SMS, UK). The sample was placed into a tared sample chamber and automatically weighed. The sample was dried at 40° C./0% RH until the dm/dt was less than 0.002% and cooled to 25° C. The instrument parameters were set as below. • Sample temperature: 25° C. • Min time per step: 30 min • Max time per step: 120 min • Cycle: Full cycle • Adsorption: 0, 10, 20, 30, 40, 50, 60, 70, 80, 90 • Desorption: 80, 70, 60, 50, 40, 30, 20, 10, 0 • Save data rate: 5 s • Total flow rate: 200 sccm • Post experimental total flow: 200 sscm
# [3] = Physical stability at RT/92.5% RH (XRPD); conditions: open, 10 days
# Description: (§1) Form II was prepared, characterized, and used for stability study. Solid stability of Form II was evaluated at RT/92.5% RH, 60° C. and 40° C./75% RH conditions for 10 days, respectively.
# Appropriate amount of Form II was open put at RT/92.5% RH condition for 10 days. Then, the sample was checked by XRPD.
# [4] = Solid stability at 40° C./75% RH and 60° C. (HPLC purity, XRPD); conditions: open; for Purity (Area %): HPLC
# Description: as §1
# An amount of Form II was open placed at 60° C. and 40° C./75% RH up to 10 days. At 0, 3 and 10 day, the sample was dissolved in diluent to prepare solution for purity analysis by HPLC. Solid samples were analyzed by XRPD to check the crystal form. […] Form II was physically and chemically stable at 40° C./75% RH and 60° C. for 10 days.
# Appropriate amounts of maleate Form I and tosylate Form I were placed at 60° C. and 40° C./75% RH for up to 24 days. At 0 and 24 day, the sample was dissolved in diluent to prepare solution for purity analysis by HPLC. Solid samples were analyzed by XRPD to check the crystal form.
# [5] = Inter-conversion study by competitive slurry of mixed forms (XRPD); conditions: for resulting form after competitive slurry: RT and 50° C. or 60° C.
# Description: Inter-conversion study was performed by competitive slurry of mixed different forms in solvents. The concentration of all slurry suspensions was 20 mg/mL.
# Equal amount of Form I, II, III and IV were added into MeOH, IPA, EA, ACN and water to make suspensions, respectively. All suspensions were stirred at RT and 50° C. The filter cakes were checked by XRPD.
# Equal amount of Form I and II were added into the saturated solution of Compound (I). The suspensions were stirred in MeOH, IPA and EA at 60° C. overnight. The filter cakes were checked by XRPD.
# Equal amount of Form II and VII were added into the saturated solution of Compound (I). The suspensions were stirred in IPA and EA at RT and 50° C. The filter cakes were checked by XRPD.
# Equal amount of Form II and VI were slurred in different water activity system (1 mL of EtOH/water) at RT for 3 days. Solid samples were collected by filtration and analyzed by XRPD.
# Equal amount of Form III and VI were slurred in water at RT and 50° C. Solid samples were collected by filtration and analyzed by XRPD.
# [6] = Mechanical treatment (grinding), XRPD check; conditions: ground in mortar, checked at 2 min and 5 min
# Description: Form II (~15 mg) was ground into a mortar for about 5 minutes, and then checked by XRPD at 2 min and 5 min, respectively.
# [7] = Solubility testing in bio-relevant media (SGF, FaSSIF, FeSSIF) and water at 37° C.; conditions: after 0.5 hours
# Description: The solubility of maleate Form I, and tosylate Form I were tested in bio-relevant media (SGF, FaSSIF, and FeSSIF) and water at 37° C. up to 24 hours. About 15 mg of the sample was weighed into sample vials and then 3 mL of media was added to make a suspension. All suspensions were shaken at 37° C. with a rate of 200 rpm. At 0.5, 2 and 24 hours, each suspension was filtered and the filtrate was analyzed by HPLC to test the solubility. pH of the filtrate was measured, and the filter cake was analyzed by XRPD.
# [8] = 40° C./75% RH and 60° C., up to 10 days
smiles,measurement,setting,value
"CC(C)c1cnn2ccc(-c3ccnc(Nc4ccc(N5CC[C@H](N(C)C)CC5=O)cn4)n3)cc12 [Compound (I), (S)-4-(dimethylamino)-1-(6-((4-(3-isopropylpyrazolo[1,5-a]pyridin-5-yl)pyrimidin-2-yl)amino)pyridin-3-yl)piperidin-2-one]",solubility,"[1]; organic solvent or mixture, DCM",> 120 mg/mL
same,solubility,"[1]; organic solvent or mixture, MeOH, MEK, EtOH and ACN",1 to 7 mg/mL
same,solubility,"[1]; organic solvent or mixture, THF",~20 mg/mL
same,solubility,[1]; other selected solvents,< 1 mg/mL
"CC(C)c1cnn2ccc(-c3ccnc(Nc4ccc(N5CC[C@H](N(C)C)CC5=O)cn4)n3)cc12 [Form II, (S)-4-(dimethylamino)-1-(6-((4-(3-isopropylpyrazolo[1,5-a]pyridin-5-yl)pyrimidin-2-yl)amino)pyridin-3-yl)piperidin-2-one]",reversibility of DVS adsorption/desorption plot,[2],nearly reversible
same,water absorbed (DVS),"[2]; 0-90% RH, 25° C.",~ 0.5%
same,crystal form after DVS testing,[2]; XRPD after DVS,remained unchanged
same,hygroscopicity,[2],slightly hygroscopic
same,crystal form change (XRPD),[3],No form change
same,crystal form change (XRPD),[4]; [8],no form changed
same,degradation (purity by HPLC),[4]; [8],No obvious degradation
same,Purity (Area %),"[4]; 40° C./75% RH, 0 d (initial)",99.17 Area %
same,Purity (Area %),"[4]; 40° C./75% RH, 3 d",99.15 Area %
same,Purity (Area %),"[4]; 40° C./75% RH, 10 d",99.13 Area %
same,Purity (Area %),"[4]; 60° C., 0 d (initial)",99.17 Area %
same,Purity (Area %),"[4]; 60° C., 3 d",99.15 Area %
same,Purity (Area %),"[4]; 60° C., 10 d",99.09 Area %
same,resulting form in competitive slurry with Form VI,"[5]; EtOH/50% water, RT",transformed to the mixture of Form II and III
same,physical stability in competitive slurry with Form VI,"[5]; EtOH/water with less than 5% of water, RT",physically stable
same,relative stability among anhydrous forms,"[5]; temperature below 60° C., non-aqueous solvent",most stable anhydrous form
same,resulting form after slurry in water,[5]; 50° C.,mixture of Form II and III
same,resulting form after slurry in water,[5]; RT,transform to Form III
same,crystal form after grinding,[6],remained unchanged
"CC(C)c1cnn2ccc(-c3ccnc(Nc4ccc(N5CC[C@H](N(C)C)CC5=O)cn4)n3)cc12 [Form III, (S)-4-(dimethylamino)-1-(6-((4-(3-isopropylpyrazolo[1,5-a]pyridin-5-yl)pyrimidin-2-yl)amino)pyridin-3-yl)piperidin-2-one]",resulting form after competitive slurry,[5]; non-aqueous solvent,transformed to Form II
same,resulting form after slurry in water,[5]; 50° C.,to Form VI
"CC(C)c1cnn2ccc(-c3ccnc(Nc4ccc(N5CC[C@H](N(C)C)CC5=O)cn4)n3)cc12 [Form IV, (S)-4-(dimethylamino)-1-(6-((4-(3-isopropylpyrazolo[1,5-a]pyridin-5-yl)pyrimidin-2-yl)amino)pyridin-3-yl)piperidin-2-one]",resulting form after competitive slurry,[5]; non-aqueous solvent,transformed to Form II
"CC(C)c1cnn2ccc(-c3ccnc(Nc4ccc(N5CC[C@H](N(C)C)CC5=O)cn4)n3)cc12 [Form I, (S)-4-(dimethylamino)-1-(6-((4-(3-isopropylpyrazolo[1,5-a]pyridin-5-yl)pyrimidin-2-yl)amino)pyridin-3-yl)piperidin-2-one]",hygroscopicity,[2],non-hygroscopicity
same,crystal form in water during solubility test,[7],converted to a metastable hydrate
same,resulting form after competitive slurry,[5]; non-aqueous solvent,transformed to Form II
"CC(C)c1cnn2ccc(-c3ccnc(Nc4ccc(N5CC[C@H](N(C)C)CC5=O)cn4)n3)cc12 [Form VI, (S)-4-(dimethylamino)-1-(6-((4-(3-isopropylpyrazolo[1,5-a]pyridin-5-yl)pyrimidin-2-yl)amino)pyridin-3-yl)piperidin-2-one]",resulting form after slurry in water,[5]; RT,transformed to Form III
